Results from patent publication US5039811A, “Preparation of N-(pyridinyl)-1H-indol-1-amines” (Hoechst-Roussel Pharmaceuticals Inc., priority 1990, dated 1991).
Structures can show the parent of a compound that is named as a salt. Where two headings read alike, the source gives them in different places.

How the values were obtained:
Format in all cases: in vivo
[1] = test system: Tetrabenazine-Induced Ptosis; assay: Prevention of Tetrabenazine-Induced Ptosis in Mice; details: Mus musculus, read-out: Ed50 (prevention of tetrabenazine-induced ptosis)
Procedure: The antidepressant activities were evaluated in this invention on the basis of prevention of Tetrabenazine-induced ptosis in mice. The test method and results are described below.
Tetrabenazine (TBZ) induces behavioral depression with concomitant ptosis in mice similar to reserpine. Antidepressant compounds, both monoamineoxidase inhibitors and tricyclics, are known to prevent or antagonize these effects and the degree of antagonism correlates with clinical efficacy. The prevention of TBZ-induced ptosis in mice is used as a preliminary screen for possible antidepressant activity. The method used in this invention is as follows:
Male mice weighing 20 to 30 grams are used in test groups of five subjects. All compounds are dissolved or suspended with a suitable surfactant in distilled water and administered in volumes of 10 ml/kg of body weight. TBZ solution is made from the methanesulfonate salt and the concentration is adjusted to enable administration of 60 mg/kg of base by intraperitoneal (i.p.) injection.
The pretreatment time is measured from the time of dosing to observation. Therefore, when a 30-minute pretreat is utilized, drug and TBZ are given simultaneously. A control group received solvent and TBZ at intervals identical to drug group. For a primary screen, the drug is administered i.p. and a group size of five is utilized. Eight animals/group are used for a dose range.
The total score for each group of five in a primary screen will, therefore, be from 0 to 20 and these scores are used as indications of drug activity.
The vehicle control group score is used as a determinant of the validity of each test. […] The calculation of percent inhibition of ptosis is: [formula]

[2] = test system: Scopolamine Induced Memory Deficit; assay: Dark Avoidance Assay (reversal of scopolamine induced memory deficit); details: s.c., mice
Procedure: In this assay mice are tested for their ability to remember an unpleasant stimulus for a period of 24 hours. A mouse is placed in a chamber that contains a dark compartment; a strong incandescent light drives it to the dark compartment, where an electric shock is administered through metal plates on the floor. The animal is removed from the testing apparatus and tested again, 24 hours later, for the ability to remember the electric shock.
If scopolamine, an anticholinergic that is known to cause memory impairment, is administered before an animal's initial exposure to the test chamber, the animal re-enters the dark compartment shortly after being placed in the test chamber 24 hours later.

[3] = test system: 2-phenyl-1,4-benzoquinone-induced writhing; assay: 2-phenyl-1,4-benzoquinone-induced writhing (PQW) test in mice; details: Mus musculus, sc, read-out: ANALGESIC ACTIVITY ED50, POW
Excerpt: (§1) Compounds I of the present invention are also useful as analgesic agents due to their ability to alleviate pain in mammals. […] Exptl. Biol. Med., 95, 729 (1957)] and in modified Haffner's analgesia.

[4] = test system: sensitivity of mice to pressure stress (artery clip on tail); assay: Modified Haffner's Analgesia (tail clip pressure stress); details: Mus musculus, sc, read-out: ANALGESIC ACTIVITY ED50, Modified Haffner's Analgesia
Excerpt: as §1
The latter assay is used to evaluate analgesic activity by measuring drug-induced changes in the sensitivity of mice to pressure stress by placing an artery clip (21/2 inches long) on their tail. The procedure used is a modification of the test developed by Haffner, Dtsch. Med. Wschr. 55, 731 (1929), and it is described below.
Male mice (Charles River, DC-1), from 18-30 grams are used for the test. An artery clip is applied to the root of the tail of a mouse (approximately 1/2 inch from the body) to induce pain. The animals quickly respond to this noxious stimuli by biting the clip or the location of the clip. This reaction time, the interval between stimulus onset and response, is recorded in 1/10 second increments by a stop watch.
For a time response, the screening dose (25 mg/kg) is administered subcutaneously (10 ml/kg) to the animal receiving food and water ad libitum before testing. Animals receiving the compound orally are fasted 18-24 hours before drug administration. Drug to be tested is prepared with distilled water and if insoluble, one drop of a surfactant is added.
Twenty-eight animals (seven/group) are administered the drug 15, 30, 45 and 60 minutes prior to testing.
The cut-off time (CO) is determined by taking the Xav +3σ of the combined response latencies of the control mice in all time periods where Xav is the average of X and σ is the standard deviation.
Any reaction time, in subsequent drug tests, which is greater than the CO (for the same time period) therefore exceeds 99% of a normal Gaussian distribution and is called "positive response" indicative of analgesic activity. A time response indicates the period of greatest analgesic effect after dosing. The ED50 is determined at the peak time of drug activity. A minimum of three dose groups are used. ED50 's are calculated using computer analysis.

[5] = po, male mice, TBZ 60 mg/kg i.p.
[6] = male mice, at peak time of drug activity
[7] = ip, male mice, TBZ 60 mg/kg i.p.

## CNCCCN1c2ccccc2CCc2ccccc21 [Desipramine, reference compound]
[1]; po
  ED50: 2.3 mg/kg

## O=C(O)/C=C\C(=O)O.c1ccc2c(c1)ccn2Nc1ccncc1 [Example 1, N-(4-Pyridinyl)-1H-indol-1-amine maleate]
[2]; 0.31 mg/kg body weight
  % of Animals With Scopolamine Induced Memory Deficit Reversed: 33%
[1]; [5]
  ED50: 3.3 mg/kg
[3]; mice
  ED50: 0.86 mg/kg
[4]; [6]
  ED50: 5.7 mg/kg

## CN(c1ccncc1)n1ccc2ccccc21.O=C(O)/C=C\C(=O)O [Example 2, N-Methyl-N-(4-pyridinyl)-1H-indol-1-amine maleate]
[2]; 0.04 mg/kg body weight
  % of Animals With Scopolamine Induced Memory Deficit Reversed: 53%
[1]; [5]
  ED50: 3.3 mg/kg
[3]; mice
  ED50: 3.2 mg/kg
[4]; [6]
  ED50: 16.3 mg/kg

## CCN(c1ccncc1)n1ccc2ccccc21.O=C(O)/C=C\C(=O)O [Example 3, N-Ethyl-N-(4-pyridinyl)-1H-indol-1-amine maleate]
[2]; 0.63 mg/kg body weight
  % of Animals With Scopolamine Induced Memory Deficit Reversed: 33%
[1]; [5]
  ED50: 5.6 mg/kg

## CCCN(c1ccncc1)n1ccc2ccccc21.O=C(O)/C=C\C(=O)O [Example 4, N-Propyl-N-(4-pyridinyl)-1H-indol-1-amine maleate]
[2]; 0.08 mg/kg body weight
  % of Animals With Scopolamine Induced Memory Deficit Reversed: 27%
[1]; [5]
  ED50: 5.1 mg/kg
[3]; mice
  ED50: 5.1 mg/kg
[4]; [6]
  ED50: 31 mg/kg

## CCCN(c1ccncc1)n1ccc2cc(OC)ccc21.O=C(O)/C=C\C(=O)O [Example 5, 5-Methoxy-N-propyl-N-(4-pyridinyl)-1H-indol-1-amine maleate]
[1]; [5]
  ED50: 29.8 mg/kg

## CN(c1ccncc1)n1cc(C=O)c2ccccc21 [Example 6, N-Methyl-N-(4-pyridinyl)-1H-indol-1-amine-3-carboxaldehyde maleate]
[1]; [5]
  ED50: 9.7 mg/kg

## CCN(c1ccncc1)n1cc(C=O)c2ccccc21 [Example 7, N-Ethyl-N-(4-pyridinyl)-1H-indol-1-amine-3-carboxaldehyde maleate]
[1]; [5]
  ED50: 11.9 mg/kg

## C=Cc1cn(N(C)c2ccncc2)c2ccccc12.O=C(O)/C=C\C(=O)O [Example 10, 3-Ethenyl-N-methyl-N-(4-pyridinyl)-1H-indol-1-amine maleate]
[3]; mice
  ED50: 1 mg/kg
[4]; [6]
  ED50: 1 mg/kg

## CCc1cn(N(C)c2ccncc2)c2ccccc12.Cl [Example 11, 3-Ethyl-N-methyl-N-(4-pyridinyl)-1H-indol-1-amine hydrochloride]
[3]; mice
  ED50: 0.9 mg/kg
[4]; [6]
  ED50: 1 mg/kg

## CN(c1ccncc1)n1ccc2cc([N+](=O)[O-])ccc21.O=C(O)/C=C\C(=O)O [Example 18, N-Methyl-5-nitro-N-(4-pyridinyl)-1H-indol-1-amine maleate]
[3]; mice
  ED50: 1 mg/kg

## Cc1cn(Nc2ccncc2)c2ccccc12.O=C(O)C(=O)O [Example 19, 3-Methyl-N-(4-pyridinyl)-1H-indol-1-amine oxalate]
[1]; [7]
  ED50: 1 mg/kg
[3]; mice
  ED50: 0.4 mg/kg
[4]; [6]
  ED50: 0.7 mg/kg

## CCCN(c1ccncc1)n1cc(C)c2ccccc21.O=C(O)/C=C\C(=O)O [Example 20, 3-Methyl-N-propyl-N-(4-pyridinyl)-1H-indol-1-amine maleate]
[2]; 0.31 mg/kg body weight
  % of Animals With Scopolamine Induced Memory Deficit Reversed: 27%
[1]; [7]
  ED50: 1.8 mg/kg
[3]; mice
  ED50: 4.1 mg/kg
[4]; [6]
  ED50: 1.4 mg/kg

## CCCN(c1ccncc1F)n1cc(C)c2ccccc21.Cl [Example 22, N-(3-Fluoro-4-pyridinyl)-N-propyl-3-methyl-1H-indol-1-amine hydrochloride]
[2]; 0.31 mg/kg body weight
  % of Animals With Scopolamine Induced Memory Deficit Reversed: 33%

## C=CCN(c1ccncc1)n1ccc2ccccc21.O=C(O)/C=C\C(=O)O [Example 23, N-(2-Propen-1-yl)-N-(4-pyridinyl)-1H-indol-1-amine maleate]
[1]; [7]
  ED50: 4.2 mg/kg
[3]; mice
  ED50: 1.3 mg/kg
[4]; [6]
  ED50: 3.8 mg/kg

## CC(C)=CCN1CCC2(C)c3cc(O)ccc3CC1C2C (stereo not shown) [Pentazocine, reference compound]
[3]
  ED50: 1.3 mg/kg
[4]
  ED50: 3.9 mg/kg

## CNC(=O)Oc1ccc2c(c1)[C@]1(C)CCN(C)[C@@H]1N2C [Physostigmine, (3aS-cis)-1,2,3,3a,8,8a-hexahydro-1,3a,8-trimethyl-pyrrolo[2,3-b]indol-5-ol, methyl carbamate, reference compound]
[2]; 0.31 mg/kg body weight
  % of Animals With Scopolamine Induced Memory Deficit Reversed: 20%
